As for `C=CCOc1ccc(S(=O)(=O)c2ccc(OCC=C)cc2)cc1`, the melting point was in the range of 140 to 142 °C.

Consider `COCSc1ccc2c(c1)CC[C@@H]1[C@@H]2CC[C@]2(C)C(=O)CC[C@@H]12`, for which the melting point amounted to 55 °C.

With `CCCCC1(CC)CSc2ccccc2N(c2ccccc2)C1=O` (stereo not drawn), the melting point amounted to 90 °C.

Molecule `N#Cc1c(N2CCN(C(=O)C3CCCO3)CC2)c2ccccc2n(Cc2ccc(F)cc2)c1=O` (stereo not drawn) yielded a melting point of 123 to 135 °C.

In the case of `NC(=O)c1cccc2c1C1(COc3cc4c(cc31)OCCO4)CN2Cc1ccccn1` (stereo not drawn), the melting point was 214 to 215 °C.

In the case of `CCOC(=O)CN1CC[C@@H](O)C1=O`, the melting point is 84 to 85 °C.

On to `CCNC(=O)C(C)(C)N=NC(C)(C)C(=O)NCC`, for which the melting point stood at 98 °C.

In turn, `CNC(=O)N1N=C(c2ccc([N+](=O)[O-])cc2)c2cc(Cl)ccc2CC1C` (stereo not drawn) had a melting point of 190 to 192 °C.

In turn, `COc1cccc(-c2cc(=O)c3ccccc3[nH]2)c1SCc1ccccc1` yielded a melting point greater than 250 °C.

Molecule `O=C(CN1CCN(c2cnccn2)CC1)N1CC=C(c2ccc(Cl)cc2)CC1` displayed a melting point of 139 to 141 °C.

The molecule `CCCN1CC(Nc2ccc3c(c2)CCO3)CC2c3cccc4c3c(cn4C)CC21` (stereo not drawn) showed a melting point of 137 to 138 °C.

In the case of `Cc1ccc(=NS(=O)(=O)C(F)(F)F)n(-c2cccc(C(F)(F)F)c2)c1`, the melting point worked out at 206 °C.

As for `C=CCn1c(-c2cccnc2)nn(CCCCN2CCN(c3ccccc3OC)CC2)c1=O`, the melting point was 71 to 75 °C.

In turn, `CCc1ncc(CCCOc2ccc(-c3nnn(C)n3)cc2)n1C` returned a melting point of 115 to 117 °C.

`CCOC(=O)CNc1cc(F)ccc1C(=O)O` gave a melting point of 123 to 125 °C.

Molecule `COC(=O)C1=NNC(C)=C(C(=O)OC)C1c1ccc(C)cc1` (stereo not drawn) displayed a melting point of 180 °C.

Consider `CNS(=O)(=O)c1c(C)cc(OC)cc1C`, for which the melting point turned out to be 131 °C.

Take `CC(C)(C)OC(=O)NCC(=O)N1[C@@H](C(=O)OC(C)(C)C)C[C@H](C(=O)O)[C@H]1c1ccccc1` (racemic): the melting point was 105 °C.

As to `CCOC(=O)c1csc(-c2ccc3cc(O)c(C45CC6CC(CC(C6)C4)C5)cc3c2)c1`, the melting point lay in the range of 199 to 200 °C.

Molecule `O=C1N(CC2CCCO2)c2c(Cl)cccc2C12COc1cc3c(cc12)CCO3` (stereo not drawn) showed a melting point of 192 to 193 °C.

With `CC(=O)NCCCCCC1CCSS1` (stereo not drawn), the melting point is 28 to 33 °C.

`O=C(C=Cc1cccc(S(=O)(=O)Nc2ccc3ccccc3c2)c1)NO`: the melting point amounted to 164 °C.

Molecule `COc1ccc(Nc2ccccc2C=C(Br)Br)cc1OC` displayed a melting point of 83 to 85 °C.

The molecule `CC(C)(C)c1n[nH]c2c1C(C1CCCCC1)N(c1ccc(-c3ccon3)cc1)C2=O` (stereo not drawn) yielded a melting point of 251 to 252 °C.

As for `Cc1ccc(S(=O)(=O)NCC(CC(C)C)NS(=O)(=O)c2ccc(C)cc2)cc1` (stereo not drawn), the melting point fell in the range of 138 to 140 °C.

Molecule `O=C(c1cc(-c2ccc(F)cc2)c(-c2ccc(F)cc2)[nH]1)C(F)(F)F` displayed a melting point of 211 to 212 °C.

Take `O=C(NCC12CC3CC(CC(C3)C1)C2)c1cc(CC[C@H](O)CO)ccc1Cl`: the melting point fell in the range of 145 to 147 °C.

Consider `CCOC(=O)CCCOc1ccc([N+](=O)[O-])c(C=C2C(=O)NC(=O)N2C)c1`, for which the melting point lay in the range of 161 to 163 °C.

With `NC[C@H](O)c1ccc2nnnn2c1`, the melting point lay within 153 to 154 °C.

`O=c1ccn(CCO)c(C(O)c2cccs2)c1OCc1ccccc1` (stereo not drawn) came in with a melting point of 194 to 196 °C.

`NC(=O)c1cc2c(SCc3ccc(Cl)cc3)cncc2s1`: the melting point lay within 198 to 199 °C.

Molecule `CC(C)(C)OC(=O)NCCc1cccc(C#N)n1` displayed a melting point of 79.1 to 80.3 °C.

Molecule `CCCCNc1cccc([N+](=O)[O-])c1C#N` gave a melting point of 72 to 74 °C.

Molecule `O=C(O)c1ccc(C(=O)Nc2nnc(-c3cc(Cl)cc(Cl)c3O)s2)nc1` registered a melting point of 267 °C.

As for `COc1cc(OCCN2CCCCC2)ccc1/C=C/c1cc(/C=C/c2ccc3cc[nH]c3c2)n[nH]1`, the melting point was in the range of 150 to 155 °C.

For `CCCCCCCCCCCCCCCCCCOC(=O)CCc1cc(C(C)(C)C)c(OP2Nc3ccccc3O2)c(C(C)(C)C)c1` (stereo not drawn), the melting point was in the range of 58 to 65 °C.

Take `CC(C)(C)COC(=O)COc1ccc(C(=O)CBr)cc1`: the melting point is 85 to 87 °C.

`CC(C)C(OC(=O)/C=C/c1ccccc1)OC(=O)NC1(C(=O)O)CC1` (stereo not drawn) came in with a melting point of 148 to 150 °C.

`c1ccc(COc2ccc(CN(c3ccccc3)c3ccccc3)cc2)cc1` showed a melting point of 104 to 109 °C.

`CC1(C)Oc2ccc(C#N)cc2[C@@H](N2CCN(c3ccccc3)C2=O)[C@@H]1O` (relative stereo) yielded a melting point of 205 to 206 °C.

`Cc1cccc2ncc(C(=O)NC3CCCCC3)c(=O)n12` showed a melting point of 174 to 176 °C.

Molecule `CC(CN(C)C)CC(CNC(=O)NCCCl)(c1ccc(F)cc1)c1ccc(F)cc1` (stereo not drawn) registered a melting point of 105 to 107 °C.

On to `CCCCC(CC)C(=O)Nc1ccc(Oc2ccccc2)c2c(=O)c3ccccc3n(C)c12` (stereo not drawn), for which the melting point fell in the range of 154 to 156 °C.

Regarding `CNC1=NN(C(=O)C(C)(C)C)C(C)S1` (stereo not drawn), the melting point is 102 to 103 °C.

Consider `Cc1ccc(C2(n3ccnc3)c3ccccc3C(=O)c3ccccc32)cc1`, for which the melting point was 200 to 204 °C.

In turn, `CCOC(=O)N1CCN(c2nc(C)nc3c2OCC(=O)N3CC(N)=O)CC1` registered a melting point of 225 to 227 °C.

As for `CCS(=O)(=O)c1cnc2c(c1)nc(CC(C)(C)C)n2CC1CCOCC1`, the melting point is 191 °C.

Molecule `N#Cc1cc(-c2nccs2)[nH]c1C(CC1CCOCC1)c1ccc(S(=O)(=O)C2CC2)cc1` (stereo not drawn) gave a melting point of 114 to 116 °C.

On to `CC(C)c1cc(-c2ccc(F)c3ccccc23)nc(NCCNS(C)(=O)=O)n1`, for which the melting point is 85 to 91 °C.

Regarding `Cc1cc(OCc2ccccc2)cc(OCCCC(C)C)c1C(=O)O`, the melting point fell in the range of 83 to 85 °C.

On to `CN(C)c1nc(N)nc2c1ncn2C1CC(F)C(CO)O1` (stereo not drawn), for which the melting point was in the range of 96 to 100 °C.

The molecule `CCOC(=O)c1n[nH]cc1-c1ccccc1` gave a melting point of 164 to 165 °C.

`COC(=O)C1=C(C)NC(C)=C(/C=C/S(=O)(=O)N(C)Cc2ccccc2)C1c1cccc([N+](=O)[O-])c1` (stereo not drawn) returned a melting point of 208 to 210 °C.

Take `CCCCCCCCc1ccc(C(=O)C2CC2C(=O)O)cc1` (stereo not drawn): the melting point was 45 to 47 °C.

Regarding `CC(c1ccc(F)cc1)N1CC(C)(C)C(Oc2ccc(C#N)c(C(F)(F)F)c2)C1=O` (stereo not drawn), the melting point is 82 to 83 °C.

Consider `O=c1c2ccccc2nc2n1CCc1c-2[nH]c2ccc(F)cc12`, for which the melting point is 290 °C.

As for `CC1(C)Oc2ccc(OCc3ccccc3)cc2C(O)C1Br` (stereo not drawn), the melting point lay within 126 to 128 °C.

`O=c1c(CCCc2ccncc2)cc2cccnc2n1-c1ccc2nonc2c1` returned a melting point of 192 to 194 °C.

`COC(=O)Nc1cccc(CC(C)N)c1` (stereo not drawn) yielded a melting point of 93 to 95 °C.

As to `Cc1cc(C)c([C@H](O)[C@@H](C#N)c2ccccc2)c(C)c1` (racemic), the melting point stood at 132 °C.

Consider `N#Cc1cn(-c2c(Cl)cc(C(F)(F)F)cc2Cl)nc1[N+](=O)[O-]`, for which the melting point fell in the range of 163 to 165 °C.

In the case of `Cc1ccc2c(c1)CCO2`, the melting point was in the range of 45 to 48 °C.

As for `COCCn1cc(C2CCN(CCOc3ccccc3C(=O)O)CC2)c2ccccc21`, the melting point was in the range of 139 to 140 °C.

Molecule `CS(=O)(=O)c1cccc(NC(=O)c2cnn3c(C4CC4)cc(-c4ccc(C(F)(F)F)cc4)nc23)c1` came in with a melting point of 231 to 234 °C.

Regarding `CC(=O)C(=CN(C)C)c1ccc(N2CCC(c3ccccc3)CC2)cc1`, the melting point was 93 to 100 °C.

Take `COC(=O)c1cnccc1NC(=O)C(C)CS` (stereo not drawn): the melting point was in the range of 54 to 56 °C.

`CCC(=O)N(C(=O)CC)c1c(C#N)cnn1-c1ccc(Cl)c(Cl)c1Cl` registered a melting point of 133 to 134 °C.

Molecule `Cn1c(CNCC2CCOC2)cc2cc(NC(=O)c3ccc(OC[C@@H]4CCCO4)cc3)ccc21` (stereo partly drawn) yielded a melting point of 128 to 129 °C.

On to `COc1ccccc1C1C(C#N)=C(C(C)C)Nc2n[nH]cc21` (stereo not drawn), for which the melting point is greater than 250 °C.

`COc1ccc(C2=NO[C@]3(CCOC3)C2)cc1OC1Cc2ccccc2C1` had a melting point of 138 °C.

With `CCOC(=O)c1c2ccc(CC(=O)NOC(=O)NC)ccc-2c(C(=O)OCC)c1N`, the melting point was 222 to 224 °C.

As to `O=C(c1cccs1)c1cnn2c(-c3cccc(-c4ccn(Cc5ccccn5)n4)c3)ccnc12`, the melting point was found to be 66 °C.

Consider `CCCc1ccc(C(=O)O)c(C(=O)O)n1`, for which the melting point fell in the range of 149 to 153 °C.

Molecule `CCOC(=O)C1=C(N)NC2=C(C(=O)CCC2)C1c1cccc(Cl)c1` (stereo not drawn) yielded a melting point of 266 °C.

Molecule `CC1Cc2c(-c3ccccc3)[nH]c(-c3ccccc3)c2CC1C` (stereo not drawn) yielded a melting point of 133 °C.

In turn, `CCOC(=O)c1nc2sc(C(=O)OCC)c(C)c2c(=O)[nH]1` registered a melting point of 237 to 238 °C.

For the molecule `CCCN(CCC)c1c(CC)nn2c(-c3ccc(N(C)C)cc3Cl)cccc12`, the melting point lay within 133 to 134 °C.

Consider `COc1ccc(C2=NN(CCCCOc3ccc(C(=O)O)cc3)C(=O)[C@H]3CC=CC[C@@H]23)cc1Cl` (relative stereo), for which the melting point was 169 to 171 °C.

Regarding `CCOCc1nc2c(N)nc3ccccc3c2n1CCCCS(=O)(=O)Nc1ccc(OC)cc1`, the melting point lay in the range of 229 to 230 °C.

With `COc1ccc(C(=O)Nc2ccccc2)cc1NC(=S)Nc1ccccc1`, the melting point fell in the range of 174 to 176 °C.

The molecule `CCNC(=NC#N)Nc1ccc(C2=NNC(=O)CC2C)cc1` (stereo not drawn) displayed a melting point of 208 to 209 °C.

For the molecule `O=c1[nH]c2ccc3c(c2o1)OC(CNCc1ccccc1)CO3` (stereo not drawn), the melting point was 220 °C.

`Sc1c(Cl)ccc(Cl)c1S` returned a melting point of 57 to 58 °C.

`CC(c1oc2ccccc2c(=O)c1-c1cccc(F)c1)n1nc(-c2ccc3[nH]ccc3c2)c2c(N)ncnc21` (stereo not drawn) displayed a melting point of 197 to 199 °C.

For the molecule `CC1(C(O)=Nc2cc(Cl)cc(Cl)c2)CCC1C(=O)O` (stereo not drawn), the melting point lay in the range of 110 to 111 °C.

Take `CCN(CC)C(=O)c1ccc(C(F)(F)F)cc1-c1ccc(OC)c(OC)c1`: the melting point fell in the range of 108 to 110 °C.

For `COc1ccc(CNCC(O)COc2cccc3[nH]c4ccccc4c23)c(OC)c1` (stereo not drawn), the melting point lay in the range of 152 to 154 °C.

For `COC(=O)c1cc(C#CC(C)(C)O)cnc1C1=NC(C)(C(C)C)C(=O)N1` (stereo not drawn), the melting point was in the range of 142 to 145 °C.

These data come from a melting point compilation (Tetko et al.; mined from patent text by program, amines drawn as free bases though some values may be those of a salt).
